Measured values taken from US20220281848A1, “PYRAZOLE-SUBSTITUTED PYRROLIDINONES AS HERBICIDES” (FMC Corporation, priority 2019, published 2022).

Legend:
Type in all cases: in vivo
corn (Zea mays, ZEAMX) = assay: Test A pre-emergence, corn; conditions: after 13 d
Outline: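 After sowing in pots and a single day of glasshouse cultivation, the soil was treated with an aqueous spray of the compound (acetone/water 50:50, 0.5% Tween 20) giving 15.625, 62.5 or 250 g/ha. Evaluation after 13 d used a scale where 0 meant no damage and 100 total damage.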

[1] = test system: ivy-leaved morning glory (Ipomoea hederacea, IPOHE); assay: Test A post-emergence, ivy-leaved morning glory; conditions: after 13 d
Outline: (§1)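 Visual damage rating (0 no damage to 100 total damage) was made 13 d after spraying. The spray was 15.625, 62.5 or 250 g/ha in 50:50 acetone/water with 0.5% Tween 20, applied to 8-day-old glasshouse plants kept at 24/16° C, 14 h light and 65% humidity.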

[2] = test system: velvetleaf (Abutilon theophrasti, ABUTH); assay: Test A post-emergence, velvetleaf; conditions: after 13 d
Outline: as §1

wheat = assay: Test D pre-emergence, wheat seed treated with a herbicide safener; conditions: 100=total damage, 0=no damage
Outline: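 Damage was rated visually from 0 (none) to 100 (total), at 20 DAA for pre-emergence and 15 d for post-emergence. Plants grew from safener-treated seed in a glasshouse at 24/18° C. or 20/16° C. day/night, 65% humidity, watered twice daily.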

plants = assay: Test D post-emergence, other plants of Tables D2 and D4; conditions: post-emergence
Description: A formulation containing 50 g/L of the test chemical was prepared by dissolving the active ingredient in a mixture of organic solvents and emulsifier, details of which are provided in the table. This formulation was then mixed with a small, variable amount of acetone to aid dissolution, before addition of a 0.2% v/v aqueous solution of an adjuvant, as the aqueous diluent, to form an aqueous spray solution which contains a predetermined concentration of the active ingredient.
This aqueous spray solution was then sprayed onto plants including maize and wheat that had been seed treated with a herbicide safener, after one day's cultivation (for pre-emergence) or after about 12 days' cultivation (for post-emergence). The plants were grown from seeds sown in standard soil, placed in a glasshouse under controlled conditions (at 24/18° C. or 20/16° C., day/night; 16 h light; 65% humidity). After spray application the plants were then grown in a glasshouse under the same conditions and watered twice daily. After 15 d for post-emergence and 20 DAA for pre-emergence the test was evaluated (100=total damage to plant; 0=no damage to plant).

CCn1nc([C@H]2CN(C)C(=O)[C@@H]2C(=O)Nc2cccc(F)c2F)c2c(F)cccc21 [Compound 7]
90: damage to plant (100=total damage; 0=no damage) ZEAMX (corn (Zea mays, ZEAMX); Pre-Emergence at 250 g/ha)
70: damage to plant (100=total damage to plant; 0=no damage to plant), ECHCG (plants; rate 250, evaluated after 15 d) | damage to plant (100=total damage to plant; 0=no damage to plant), ECHCG (plants; rate 500, evaluated after 15 d) | damage to plant (100=total damage to plant; 0=no damage to plant), SETFA (plants; rate 250, evaluated after 15 d) | damage to plant (100=total damage to plant; 0=no damage to plant), SETFA (plants; rate 500, evaluated after 15 d)
40: damage to plant (100=total damage to plant; 0=no damage to plant), EPHHL (plants; rate 500, evaluated after 15 d)
20: damage to plant (100=total damage; 0=no damage) ZEAMX (corn (Zea mays, ZEAMX); Pre-Emergence at 15.625 g/ha) | damage to plant (100=total damage; 0=no damage) IPOHE ([1]; Post-Emergence at 15.625 g/ha) | damage to plant (100=total damage; 0=no damage) IPOHE ([1]; Post-Emergence at 62.5 g/ha) | damage to plant (100=total damage to plant; 0=no damage to plant), ABUTH (plants; rate 500, evaluated after 15 d) | damage to plant (100=total damage to plant; 0=no damage to plant), ECHCG (plants; rate 130, evaluated after 15 d) | damage to plant (100=total damage to plant; 0=no damage to plant), EPHHL (plants; rate 250, evaluated after 15 d)
60: damage to plant (100=total damage to plant; 0=no damage to plant), SORVU (plants; rate 500, evaluated after 15 d)
30: damage to plant (100=total damage; 0=no damage) ZEAMX (corn (Zea mays, ZEAMX); Pre-Emergence at 62.5 g/ha) | damage to plant (100=total damage to plant; 0=no damage to plant), SIDSP (plants; SIDSP, rate 500, evaluated after 15 d)
80: damage to plant (100=total damage to plant; 0=no damage to plant), BRAPL (plants; rate 250, evaluated after 15 d) | damage to plant (100=total damage to plant; 0=no damage to plant), BRAPL (plants; rate 500, evaluated after 15 d) | damage to plant (100=total damage to plant; 0=no damage to plant), DIGSA (plants; rate 250, evaluated after 15 d) | damage to plant (100=total damage to plant; 0=no damage to plant), DIGSA (plants; rate 500, evaluated after 15 d)
10: damage to plant (100=total damage to plant; 0=no damage to plant), ABUTH (plants; rate 250, evaluated after 15 d) | damage to plant (100=total damage to plant; 0=no damage to plant), AMARE (plants; rate 500, evaluated after 15 d)
0: damage to plant (100=total damage; 0=no damage) IPOHE ([1]; Post-Emergence at 250 g/ha) | damage to plant (100=total damage; 0=no damage) ABUTH ([2]; Post-Emergence at 15.625 g/ha) | damage to plant (100=total damage; 0=no damage) ABUTH ([2]; Post-Emergence at 62.5 g/ha) | damage to plant (100=total damage; 0=no damage) ABUTH ([2]; Post-Emergence at 250 g/ha) | damage to plant, TRZAW (wheat; rate 15, 20 DAA) | damage to plant, TRZAW (wheat; rate 30, 20 DAA) | damage to plant, TRZAW (wheat; rate 60, 20 DAA) | damage to plant, TRZAW (wheat; rate 130, 20 DAA) | damage to plant, TRZAW (wheat; rate 250, 20 DAA) | damage to plant, TRZAW (wheat; rate 500, 20 DAA) | damage to plant (100=total damage to plant; 0=no damage to plant), ABUTH (plants; rate 130, evaluated after 15 d) | damage to plant (100=total damage to plant; 0=no damage to plant), AMARE (plants; rate 130, evaluated after 15 d) | damage to plant (100=total damage to plant; 0=no damage to plant), AMARE (plants; rate 250, evaluated after 15 d) | damage to plant (100=total damage to plant; 0=no damage to plant), BIDPI (plants; rate 130, evaluated after 15 d) | damage to plant (100=total damage to plant; 0=no damage to plant), BIDPI (plants; rate 250, evaluated after 15 d) | damage to plant (100=total damage to plant; 0=no damage to plant), BIDPI (plants; rate 500, evaluated after 15 d) | damage to plant (100=total damage to plant; 0=no damage to plant), BRAPL (plants; rate 130, evaluated after 15 d) | damage to plant (100=total damage to plant; 0=no damage to plant), CYPES (plants; rate 130, evaluated after 15 d) | damage to plant (100=total damage to plant; 0=no damage to plant), CYPES (plants; rate 250, evaluated after 15 d) | damage to plant (100=total damage to plant; 0=no damage to plant), CYPES (plants; rate 500, evaluated after 15 d) | damage to plant (100=total damage to plant; 0=no damage to plant), DIGSA (plants; rate 130, evaluated after 15 d) | damage to plant (100=total damage to plant; 0=no damage to plant), EPHHL (plants; rate 130, evaluated after 15 d) | damage to plant (100=total damage to plant; 0=no damage to plant), GLXMA (plants; rate 130, evaluated after 15 d) | damage to plant (100=total damage to plant; 0=no damage to plant), GLXMA (plants; rate 250, evaluated after 15 d) | damage to plant (100=total damage to plant; 0=no damage to plant), GLXMA (plants; rate 500, evaluated after 15 d) | damage to plant (100=total damage to plant; 0=no damage to plant), IPOHE (plants; rate 130, evaluated after 15 d) | damage to plant (100=total damage to plant; 0=no damage to plant), IPOHE (plants; rate 250, evaluated after 15 d) | damage to plant (100=total damage to plant; 0=no damage to plant), IPOHE (plants; rate 500, evaluated after 15 d) | damage to plant (100=total damage to plant; 0=no damage to plant), ORYSA (plants; rate 130, evaluated after 15 d) | damage to plant (100=total damage to plant; 0=no damage to plant), ORYSA (plants; rate 250, evaluated after 15 d) | damage to plant (100=total damage to plant; 0=no damage to plant), ORYSA (plants; rate 500, evaluated after 15 d) | damage to plant (100=total damage to plant; 0=no damage to plant), PANMI (plants; rate 130, evaluated after 15 d) | damage to plant (100=total damage to plant; 0=no damage to plant), PANMI (plants; rate 250, evaluated after 15 d) | damage to plant (100=total damage to plant; 0=no damage to plant), PANMI (plants; rate 500, evaluated after 15 d) | damage to plant (100=total damage to plant; 0=no damage to plant), SETFA (plants; rate 130, evaluated after 15 d) | damage to plant (100=total damage to plant; 0=no damage to plant), SORVU (plants; rate 130, evaluated after 15 d) | damage to plant (100=total damage to plant; 0=no damage to plant), SORVU (plants; rate 250, evaluated after 15 d)
